# Source: PMC12337082 (Journal of Biochemical and Molecular Toxicology, 2025)
# Legend:
# MDA‐MB‐231 [1] = assay: Annexin V/PI staining, Tali image‐based cytometry, MDA‐MB‐231; assay type: cell-based, human; details: MDA‐MB‐231, 24 h
# Excerpt: (§1) To assess apoptosis and cell death, cells were stained with Annexin V‐PI dyes (Tali Apoptosis Kit‐Annexin V Alexa Fluor 488 and PI‐, Molecular Probes A10788, Invitrogen) and quantified using Tali Image‐Based Cytometer (Invitrogen) and fluorescence microscopy (Olympus CKX41 Inverted Phase Contrast Fluorescence Microscope furbished with reflected fluorescence illuminator CKX‐RFA).
# (§2) To assess whether our compounds produce their cytotoxic effects through induction of apoptosis, apoptosis was investigated using Annexin V/PI labeling and MMP methods (Figures 4A−C). In addition, by utilizing TALI image‐based cytometry and fluorescent microscopy, the number of cells was analyzed for different concentrations of agents (Table 4).
# MCF‐7 [2] = assay: Annexin V/PI staining, Tali image‐based cytometry, MCF‐7; assay type: cell-based, human; details: MCF‐7, 24 h
# Excerpt: as §1, §2
# [3] = test system: MCF‐7, MDA‐MB‐231, and L‐929 cells; assay: Mitochondrial membrane potential (JC‐1) apoptosis assay, statements over all cell lines; assay type: cell-based; details: MMP assay, similar levels for all cells including L‐929
# Method: Apoptosis was also investigated by evaluating mitochondrial membrane potential changes (MMP assay). MCF‐7, MDA‐MB‐231, and L‐929 cells were stained with JC‐1 dye according to the manufacturer's protocols (JC‐1 MMP Assay Kit, KA1324, Abnova). The apoptotic to healthy cell ratio was calculated using absorbances collected from two different fluorescence channels (535/595 for healthy cells, 485/535 for apoptotic cells) (Synergy H1, Biotech Instruments Inc., Vermont, USA).
# [4] = test system: MCF‐7, MDA‐MB‐231, and L‐929; assay: MTT cell viability assay, statements over all cell lines; assay type: cell-based
# Excerpt: (§3) MCF‐7, MDA‐MB‐231, and L‐929 mouse fibroblast cell lines were obtained from the American Type Culture Collection (ATCC, Manassas, Virginia, USA). MCF‐7 is a hormone‐responsive, differentiated mammary epithelium cell line with an ER+, PR+, and HER2‐ pattern (ATCC, HTB‐22). MDA‐MB‐231 is a triple‐negative differentiated mammary epithelium cell line (ATCC, HTB‐26). The L‐929 mouse fibroblast cell line is derived from the normal subcutaneous connective tissue of a mouse and is commonly used in cytotoxicity assays (ATCC, CCL‐1). All cell lines were cultured in DMEM medium (Dulbecco's Modified Eagle Medium, Gibco), supplemented with 10% fetal bovine serum (Gibco), 1% glutamine, and penicillin/streptomycin (Gibco) in a humidified atmosphere containing 5% CO2 at 37°C. Cell viability was tested using Trypan blue staining.
# (§4) The MTT [3‐(4,5‐dimethylthiazol‐2‐yl)−2,5‐diphenyltetrazolium bromide] assay is a colorimetric assay for determining cell metabolic activity. In the MTT assay, the yellow dye MTT that dissolves in water is changed by mitochondrial reductase into a purple formazan that is non‐soluble. The water‐insoluble formazan produced is solubilized in a solubilization buffer, and absorbances are detected.
# (§5) In 96‐well plates, the cells were cultivated at a density of 5 × 10^3 cells/well using 100 µL medium. […] 10 μL of the MTT labeling reagent (final concentration 0.5 mg/mL) were added to each well at the end of the incubation periods, and the wells were incubated for an additional 4 h. Next, each well received 100 μL of solubilization buffer (10% SDS in 0.01 M HCl) and was overnight incubated, and the absorbance of formazan products was evaluated at 550 nm using a multi‐mode microplate reader (Synergy H1, Biotech Instruments Inc., Vermont, USA). The results were normalized relative to the absorbances of calculated percent concentrations of DMSO. All tests involved three replicates with three independent experiments.
# All statistical evaluations, including t‐tests and IC50 values, were calculated using the GraphPad Prism software tool (v6.0, GraphPad Software Inc., San Diego, USA). […]
# PGE2 release [5] = assay: PGE2 ELISA, MDA‐MB‐231; assay type: cell-based, human; details: MDA‐MB‐231, 0.5 mM, 24 h
# Method: (§6) PGE2 ELISA kit (ENZO, ADI‐900‐001) was used to determine prostaglandin synthesis levels. MCF‐7 and MDA‐MB‐231 breast cancer cells were cultured at a density of 1 × 10^6 cells/well in a 6‐well culture dish. […] Following 24 h of incubation, the medium was replaced with a fresh one, 10 µM arachidonic acid was added, and it was further incubated for 1 h. The PGE2 levels were determined according to the kit protocol.
# PGE2 release [6] = assay: PGE2 ELISA, MCF‐7; assay type: cell-based, human; details: MCF‐7, 0.5 mM, 24 h
# Method: as §6
# MDA‐MB‐231 [7] = assay: MTT cell viability assay, MDA‐MB‐231; assay type: cell-based, human; details: Homo sapiens, MTT
# Excerpt: as §3, §4, §5
# (§7) All statistical evaluations, including t‐tests and IC50 values, were calculated using the GraphPad Prism software tool (v6.0, GraphPad Software Inc., San Diego, USA). Statistical significance was defined as p ˂ 0.05 (*p < 0.05, **p < 0.01, ***p < 0.001, ****p < 0.0001).
# [8] = test system: L‐929 mouse fibroblast cell line; assay: MTT cell viability assay, L‐929 control fibroblasts; assay type: cell-based; details: Mus musculus
# Excerpt: as §3, §4, §5, §7
# Leukemia = test system: Leukemia; parameters: method as in Nakamura et al. (2004) [60]; details: 72 h, ref Nakamura et al. (2004) [60]; cited from earlier work
# MCF‐7 [9] = assay: MTT cell viability assay, MCF‐7; assay type: cell-based, human; details: Homo sapiens, MCF7, MTT
# Excerpt: as §3, §4, §5, §7
# SSC‐9 skin cancer = test system: SSC‐9 skin cancer; parameters: method as in Abo Aasy et al. (2019) [62]; details: 24 h, ref Abo Aasy et al. (2019) [62]; cited from earlier work
compound,measurement,setting,value
"CCc1cccc2c3c([nH]c12)C(CC)(CC(=O)O)OCC3 (stereo not shown) [Etodolac, 2‐(1,8‐diethyl‐1,3,4‐tetrahydropyrano [3,4‐b]indol‐1‐yl) acetic acid, reference compound]",Apoptotic cells,MDA‐MB‐231 [1]; 100 µM,1%
same,Dead cells,MDA‐MB‐231 [1]; 100 µM,4%
same,Live cells,MDA‐MB‐231 [1]; 100 µM,95%
same,Apoptotic cells,MDA‐MB‐231 [1]; 250 µM,1%
same,Dead cells,MDA‐MB‐231 [1]; 250 µM,5%
same,Live cells,MDA‐MB‐231 [1]; 250 µM,94%
same,Apoptotic cells,MDA‐MB‐231 [1]; 500 µM,6%
same,Dead cells,MDA‐MB‐231 [1]; 500 µM,10%
same,Live cells,MDA‐MB‐231 [1]; 500 µM,84%
same,Apoptotic cells,MDA‐MB‐231 [1]; 1000 µM,11%
same,Dead cells,MDA‐MB‐231 [1]; 1000 µM,13%
same,Live cells,MDA‐MB‐231 [1]; 1000 µM,76%
same,Apoptotic cells,MCF‐7 [2]; 100 µM,1%
same,Dead cells,MCF‐7 [2]; 100 µM,5%
same,Live cells,MCF‐7 [2]; 100 µM,94%
same,Apoptotic cells,MCF‐7 [2]; 250 µM,2%
same,Dead cells,MCF‐7 [2]; 250 µM,6%
same,Live cells,MCF‐7 [2]; 250 µM,92%
same,Apoptotic cells,MCF‐7 [2]; 500 µM,7%
same,Dead cells,MCF‐7 [2]; 500 µM,9%
same,Live cells,MCF‐7 [2]; 500 µM,84%
same,Apoptotic cells,MCF‐7 [2]; 1000 µM,5%
same,Dead cells,MCF‐7 [2]; 1000 µM,8%
same,Live cells,MCF‐7 [2]; 1000 µM,87%
same,Concentration after which apoptotic increases became detectable,[3],0.5−1.0 mM
same,Concentration at which viability of the cells was reduced,[4]; all cell lines including healthy controls,0.2−0.5 mM
same,IC50,[4]; read-out: IC50 range,500 to 1000 µM
same,Inhibition of PGE2 release,PGE2 release [5],38%
same,Inhibition of PGE2 release,PGE2 release [6],57%
same,IC50,"MDA‐MB‐231 [7]; MDA-MB-231, 24 h, MDA‐MB‐231, 24 h",740 ± 1.65 µM
same,IC50,"MDA‐MB‐231 [7]; MDA-MB-231, 48 h, MDA‐MB‐231, 48 h",699 ± 4.61 µM
same,IC50,"MDA‐MB‐231 [7]; MDA-MB-231, 72 h, MDA‐MB‐231, 72 h",578 ± 3.65 µM
same,IC50,"[8]; L929, 24 h, L‐929, 24 h",735 ± 3.7 µM
same,IC50,"[8]; L929, 48 h, L‐929, 48 h",751 ± 9.5 µM
same,IC50,"[8]; L929, 72 h, L‐929, 72 h",622 ± 4.7 µM
same,IC50,Leukemia,50 to 100 µM
same,IC50,"MCF‐7 [9]; MCF‐7, 24 h",750 ± 4.2 µM
same,IC50,"MCF‐7 [9]; MCF‐7, 48 h",731 ± 1.37 µM
same,IC50,"MCF‐7 [9]; MCF‐7, 72 h",555 ± 2.42 µM
same,IC50,SSC‐9 skin cancer,983 µM
